This passage reports IC50 results from patent US20240285614A1, “PHENOL RIBONUCLEOTIDE REDUCTASE (RNR) INHIBITORS AND USES THEREOF” (Boundless Bio, Inc., priority 2023, published 2024).

Where only a bound is given, the exact number is not on record here.

The subject of assay [1] is pCHK1 (S345) in Colo320 DM cells. The assay can be described thus: Alphalisa assay, detection of pCHK1 (S345) in Colo320 DM cells. In kind it is cell-based. Particulars: Homo sapiens, COLO 320DM, compound incubation overnight (approximately 16 hours). On the procedure: Colo320 DM cells (ATCC #CCL-220, derived from human colorectal adenocarcinoma, Dukes' type C) were seeded on a 96-well, cell culture treated assay plate at a density of 50,000 cells/well in 200 μL of RPMI-1640 media supplemented with 10% Fetal Bovine Serum and incubated at 37° C. overnight. The following day, test compound dilutions were added directly to the plated cells by a Tecan digital dispenser to a final DMSO concentration of <0.5%, and incubated at 37° C. overnight (approximately 16 hours). The following day all cull culture media was removed from the cells. 75 μL of 1× AlphaLisa lysis buffer was added to each well and plates were agitated on a shaker for 30 minutes at room temperature. The lysis of cells and detection of pCHK1 (S345) were performed with regents contained within the AlphaLisa Sure Fire assay kit (Perkin Elmer #ALSU-PCHK1-A) according to the manufacturer's instructions. 10 μL of each lysate was then transferred to a white, 384-well assay plate (Perkin Elmer #6008280), 5 μL of Acceptor mix was then added to each well of lysate in the white, 384-well assay plate and incubated in the dark at room temperature for 60 minutes. 5 μL of Donor mix was then added to each well of the white, 384-well assay plate in subdued light and incubated at room temperature for 60 minutes. Plates were read on an Alpha Technology-compatible plate reader using standard AlphaLisa settings.
(In general: Bead proximity is the source of the signal in Alpha formats.)

Assay [2] addresses T1, RNR (RNR1:RNR2 1:1) (Homo sapiens, UniProt P23921+P31350).
T1 sequence (P23921 1-792): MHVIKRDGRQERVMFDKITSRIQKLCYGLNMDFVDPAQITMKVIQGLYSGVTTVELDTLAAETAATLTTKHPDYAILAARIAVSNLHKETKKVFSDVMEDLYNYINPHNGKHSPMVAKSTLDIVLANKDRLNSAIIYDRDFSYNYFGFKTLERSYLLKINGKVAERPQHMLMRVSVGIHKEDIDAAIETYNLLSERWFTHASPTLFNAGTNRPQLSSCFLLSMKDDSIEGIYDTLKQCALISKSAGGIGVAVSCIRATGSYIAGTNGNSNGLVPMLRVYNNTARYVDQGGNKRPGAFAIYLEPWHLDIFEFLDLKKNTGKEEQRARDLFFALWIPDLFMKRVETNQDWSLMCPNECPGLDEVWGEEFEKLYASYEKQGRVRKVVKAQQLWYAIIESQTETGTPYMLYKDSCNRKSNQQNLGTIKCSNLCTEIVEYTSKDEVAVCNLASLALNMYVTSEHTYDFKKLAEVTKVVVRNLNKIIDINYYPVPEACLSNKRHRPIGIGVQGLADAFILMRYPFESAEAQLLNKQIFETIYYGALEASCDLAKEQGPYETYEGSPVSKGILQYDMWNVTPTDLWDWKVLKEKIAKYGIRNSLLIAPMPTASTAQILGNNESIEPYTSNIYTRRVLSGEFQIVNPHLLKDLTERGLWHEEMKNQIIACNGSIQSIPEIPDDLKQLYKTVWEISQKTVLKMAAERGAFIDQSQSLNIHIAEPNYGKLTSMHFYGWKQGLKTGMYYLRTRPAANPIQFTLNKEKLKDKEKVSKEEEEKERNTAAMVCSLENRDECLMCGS
T1 sequence (P31350 1-389): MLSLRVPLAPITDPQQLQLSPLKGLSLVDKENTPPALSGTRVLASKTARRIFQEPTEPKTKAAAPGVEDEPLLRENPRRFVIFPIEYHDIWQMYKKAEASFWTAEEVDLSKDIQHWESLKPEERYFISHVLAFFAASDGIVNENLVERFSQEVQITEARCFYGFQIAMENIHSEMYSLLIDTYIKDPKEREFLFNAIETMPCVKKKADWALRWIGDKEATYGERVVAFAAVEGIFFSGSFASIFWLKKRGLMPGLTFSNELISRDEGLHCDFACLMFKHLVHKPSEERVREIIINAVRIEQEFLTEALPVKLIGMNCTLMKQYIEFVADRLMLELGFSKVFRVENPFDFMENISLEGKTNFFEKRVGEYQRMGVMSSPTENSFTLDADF
The assay can be described thus: RNR enzyme activity, rapid-fire mass spectrometry (RF/MS) assay. In kind it is biochemical. Particulars: RNR 50 nM, 1:1 (RNR1:RNR2); CDP 5 μM; ATP 1 mM; 37° C., 45 min; compounds screened up to 50 μM. On the procedure:
A rapid-fire mass spectrometry (RF/MS) assay was used to assess RNR enzyme activity using a 384 well plate and a robotic platform.
The plate layout included two validated reference compounds (Triapine (3-AP) and Hydroxyurea (HU)): • A dose response in duplicate, top concentration: 5 μM (3-AP) and 250 μM (HU), semi-log • dilutions. • Spike wells in triplicate randomly spotted at four concentrations: • 250 μM, 100 μM, 30 μM and 2 μM for HU • 5 μM, 2 μM, 0.6 μM and 0.04 μM for 3-AP
First, the multidrop pipes were saturated for 30 minutes with enzymatic solution. Then 30 μL of Stop solution was distributed in column 24. Next, 15 μL of enzyme was distributed in column 1 to 24. Next, a pre-incubation step of 15 minutes at room temperature occurred, followed by distribution of 15 μL of substrate solution (column 1 to 24). Next, the plate was incubated for 45 minutes at 37° C. 30 μL of Stop solution was distributed to columns 1 to 23.
The final parameters for the enzyme reactions were: • Incubation: 37° C., 45 min • [CDP]: 5 μM: [ATP]: 1 mM; [NADPH]: No • [RNR]final: 50 nM with 1:1 (RNR1:RNR2) ratio • Final volume: 30 μL • Stop solution: 6% HCOOH containing 2 μM of 15

For the molecule `CN(c1ccc(O)cc1)C1CCN(S(=O)(=O)c2cccc3[nH]ccc23)C1` (racemic) [compound 31, rac-(R)-4-((1-((1H-indol-4-yl)sulfonyl)pyrrolidin-3-yl)(methyl)amino)phenol], the IC50 (usually the concentration that inhibits the measured activity by half) is 1000 to 5000 nM in assay [1] and no more than 50 nM in assay [2].

Consider `CN(c1ccc(O)cc1)C1CCN(S(=O)(=O)c2ccc3cc[nH]c3c2)C1` (racemic) [compound 20, rac-(R)-4-((1-((1H-indol-6-yl)sulfonyl)pyrrolidin-3-yl)(methyl)amino)phenol], for which the IC50 in assay [1] was no more than 1000 nM; in assay [2], no more than 50 nM.

Consider `C[C@@H]1C[C@H](N(C)c2ccc(O)cc2)CN1S(=O)(=O)c1ccc2cc[nH]c2c1` (racemic) [compound 37, rac-4-(((3R,5S)-1-((1H-indol-6-yl)sulfonyl)-5-methylpyrrolidin-3-yl)(methyl)amino)phenol], for which the figures for the IC50 in assay [1] and in assay [2] were 1000 to 5000 nM and no more than 50 nM, respectively.

Consider `O=S(=O)(c1ccc2[nH]ccc2c1)N1CCN(c2ccc(O)cc2)CC1` [compound 9, 4-(4-((1H-indol-5-yl)sulfonyl)piperazin-1-yl)phenol], for which the IC50 fell in the range of 5000 to 10000 nM in assay [1] and 100 to 500 nM in assay [2].

Take `O=S(=O)(c1ccc2cc[nH]c2c1)N1CCN(c2ccc(O)cc2)CC1` [compound 2, 4-(4-((1H-indol-6-yl)sulfonyl)piperazin-1-yl)phenol]: the figures for the half-maximal inhibitory concentration (IC50) in assay [1] and in assay [2] were 1000 to 5000 nM and 50 to 100 nM, respectively.

`O=S(=O)(c1cc2ccccc2[nH]1)N1CCC2(CCN(c3ccc(O)cc3)CC2)C1` [compound 47, 4-(2-((1H-indol-2-yl)sulfonyl)-2,8-diazaspiro[4.5]decan-8-yl)phenol]: the concentration for half-maximal inhibition (IC50) fell in the range of 10000 to 50000 nM in assay [1] and 100 to 500 nM in assay [2].

On to `O=S(=O)(c1ccc2cc[nH]c2c1)N1CC2CC1CN2c1ccc(O)cc1` (centres unmarked) [compound 35, 4-(5-((1H-indol-6-yl)sulfonyl)-2,5-diazabicyclo[2.2.1]heptan-2-yl)phenol], for which the results for the IC50 in assay [1] and in assay [2] were 10000 to 50000 nM and 100 to 500 nM, respectively.

Regarding `O=S(=O)(c1ccc2cc[nH]c2c1)N1CC(Nc2ccc(O)cc2)C1` [compound 11, 4-((1-((1H-indol-6-yl)sulfonyl)azetidin-3-yl)amino)phenol], the IC50 in assay [1] is 1000 to 5000 nM; in assay [2], no more than 50 nM.

For `CN(C1CN(c2ccc(O)cc2)C1)S(=O)(=O)c1ccc2cc[nH]c2c1` [compound 16, N-(1-(4-hydroxyphenyl)azetidin-3-yl)-N-methyl-1H-indole-6-sulfonamide], the 50% inhibitory concentration (IC50) in assay [1] lay within 1000 to 5000 nM; in assay [2], 100 to 500 nM.

In the case of `O=S(=O)(c1ccc2cc[nH]c2c1)N1CC(N(c2ccc(O)cc2)C2CC2)C1` [compound 19, 4-((1-((1H-indol-6-yl)sulfonyl)azetidin-3-yl)(cyclopropyl)amino)phenol], the IC50 in assay [1] was 1000 to 5000 nM; in assay [2], no more than 50 nM.

For the molecule `O=S(=O)(c1ccc2cc[nH]c2c1)N1CCN(c2ccc(O)cc2)CC12CCC2` [compound 46, 4-(5-((1H-indol-6-yl)sulfonyl)-5,8-diazaspiro[3.5]nonan-8-yl)phenol], the concentration for half-maximal inhibition (IC50) was in the range of 1000 to 5000 nM in assay [1] and 50 to 100 nM in assay [2].

With `O=S(=O)(c1ccc2cc[nH]c2c1)N1[C@@H]2CCC[C@H]1CN(c1ccc(O)cc1)C2` [compound 34, 4-((1R,5S)-9-((1H-indol-6-yl)sulfonyl)-3,9-diazabicyclo[3.3.1]nonan-3-yl)phenol], the IC50 in assay [1] is 1000 to 5000 nM; in assay [2], no more than 50 nM.

As to `C[C@@H]1[C@H](Nc2ccc(O)cc2)CN1S(=O)(=O)c1ccc2cc[nH]c2c1` (racemic) [compound 36, rac-4-(((2R,3R)-1-((1H-indol-6-yl)sulfonyl)-2-methylazetidin-3-yl)amino)phenol], the IC50 in assay [1] was in the range of 1000 to 5000 nM; in assay [2], 100 to 500 nM.

`O=S(=O)(c1ccc2cc[nH]c2c1)N1CC[C@H](N(Cc2cccnc2)c2ccc(O)cc2)C1` [compound 50, (S)-4-((1-((1H-indol-6-yl)sulfonyl)pyrrolidin-3-yl)(pyridin-3-ylmethyl)amino)phenol]: the figures for the 50% inhibitory concentration (IC50) in assay [1] and in assay [2] were 10000 to 50000 nM and 100 to 500 nM, respectively.

Consider `CN(c1ccc(O)cc1)C1CN(S(=O)(=O)c2ccc3cc[nH]c3c2)C1` [compound 13, 4-((1-((1H-indol-6-yl)sulfonyl)azetidin-3-yl)(methyl)amino)phenol], for which the IC50 in assay [1] was no more than 1000 nM; in assay [2], no more than 50 nM.

`O=S(=O)(c1ccc2cc[nH]c2c1)N1C[C@H]2CC[C@@H](C1)N2c1ccc(O)cc1` [compound 26, 4-((1R,5S)-3-((1H-indol-6-yl)sulfonyl)-3,8-diazabicyclo[3.2.1]octan-8-yl)phenol]: the 50% inhibitory concentration (IC50) lay within 5000 to 10000 nM in assay [1] and 100 to 500 nM in assay [2].

On to `O=S(=O)(c1ccc2cc[nH]c2c1)N1CCN(c2ccc(O)cc2)CC12CC2` [compound 33, 4-(4-((1H-indol-6-yl)sulfonyl)-4,7-diazaspiro[2.5]octan-7-yl)phenol], for which the IC50 in assay [1] was 1000 to 5000 nM.

`O=S(=O)(c1ccc2cc[nH]c2c1)N1CC=C(c2ccc(O)cc2)CC1` [compound 8, 4-[1-(1H-indol-6-ylsulfonyl)-3,6-dihydro-2H-pyridin-4-yl]phenol] displayed an IC50 in assay [1] of 1000 to 5000 nM.

In assay [1], `C[C@H]1C[C@H](N(C)c2ccc(O)cc2)CN1S(=O)(=O)c1ccc2cc[nH]c2c1` (racemic) [compound 48, rac-4-(((3R,5R)-1-((1H-indol-6-yl)sulfonyl)-5-methylpyrrolidin-3-yl)(methyl)amino)phenol] gave an IC50 of 1000 to 5000 nM.

As to `CN(c1ccc(O)cc1)C1CCN(S(=O)(=O)c2cc3[nH]c(Cl)cc3cc2F)C1` (racemic) [compound 32, rac-(R)-4-((1-((2-chloro-5-fluoro-1H-indol-6-yl)sulfonyl)pyrrolidin-3-yl)(methyl)amino)phenol], the IC50 in assay [1] lay in the range of 1000 to 5000 nM.

`O=C1C[C@@H]2CN(S(=O)(=O)c3ccc4cc[nH]c4c3)C[C@H](C1)N2c1ccc(O)cc1` [compound 42, (1R,5S)-3-((1H-indol-6-yl)sulfonyl)-9-(4-hydroxyphenyl)-3,9-diazabicyclo[3.3.1]nonan-7-one] yielded an IC50 in assay [1] of 1000 to 5000 nM.

`O=S(=O)(c1ccc2cc[nH]c2c1)N1CCC2C1CCCN2c1ccc(O)cc1` (centres unmarked) [compound 49, 4-(1-((1H-indol-6-yl)sulfonyl)octahydro-4H-pyrrolo[3,2-b]pyridin-4-yl)phenol] came in with a concentration for half-maximal inhibition (IC50) in assay [1] of 1000 to 5000 nM.
